# Test results reported in paper PMC4503722, “Novel Phenotypic Outcomes Identified for a Public Collection of Approved Drugs from a Publicly Accessible Panel of Assays” (PLoS ONE, 2015).
# Target: T1, hKDR (Homo sapiens, UniProt P35968)
# T1 construct: purchased Cerep (LANCE kinase assay platform, contract assay)
# Experiment: Cerep LANCE kinase assay hKDR (S1 assay 32)
# Format: biochemical
# Conditions: not given
# T1 sequence (P35968 20-1356): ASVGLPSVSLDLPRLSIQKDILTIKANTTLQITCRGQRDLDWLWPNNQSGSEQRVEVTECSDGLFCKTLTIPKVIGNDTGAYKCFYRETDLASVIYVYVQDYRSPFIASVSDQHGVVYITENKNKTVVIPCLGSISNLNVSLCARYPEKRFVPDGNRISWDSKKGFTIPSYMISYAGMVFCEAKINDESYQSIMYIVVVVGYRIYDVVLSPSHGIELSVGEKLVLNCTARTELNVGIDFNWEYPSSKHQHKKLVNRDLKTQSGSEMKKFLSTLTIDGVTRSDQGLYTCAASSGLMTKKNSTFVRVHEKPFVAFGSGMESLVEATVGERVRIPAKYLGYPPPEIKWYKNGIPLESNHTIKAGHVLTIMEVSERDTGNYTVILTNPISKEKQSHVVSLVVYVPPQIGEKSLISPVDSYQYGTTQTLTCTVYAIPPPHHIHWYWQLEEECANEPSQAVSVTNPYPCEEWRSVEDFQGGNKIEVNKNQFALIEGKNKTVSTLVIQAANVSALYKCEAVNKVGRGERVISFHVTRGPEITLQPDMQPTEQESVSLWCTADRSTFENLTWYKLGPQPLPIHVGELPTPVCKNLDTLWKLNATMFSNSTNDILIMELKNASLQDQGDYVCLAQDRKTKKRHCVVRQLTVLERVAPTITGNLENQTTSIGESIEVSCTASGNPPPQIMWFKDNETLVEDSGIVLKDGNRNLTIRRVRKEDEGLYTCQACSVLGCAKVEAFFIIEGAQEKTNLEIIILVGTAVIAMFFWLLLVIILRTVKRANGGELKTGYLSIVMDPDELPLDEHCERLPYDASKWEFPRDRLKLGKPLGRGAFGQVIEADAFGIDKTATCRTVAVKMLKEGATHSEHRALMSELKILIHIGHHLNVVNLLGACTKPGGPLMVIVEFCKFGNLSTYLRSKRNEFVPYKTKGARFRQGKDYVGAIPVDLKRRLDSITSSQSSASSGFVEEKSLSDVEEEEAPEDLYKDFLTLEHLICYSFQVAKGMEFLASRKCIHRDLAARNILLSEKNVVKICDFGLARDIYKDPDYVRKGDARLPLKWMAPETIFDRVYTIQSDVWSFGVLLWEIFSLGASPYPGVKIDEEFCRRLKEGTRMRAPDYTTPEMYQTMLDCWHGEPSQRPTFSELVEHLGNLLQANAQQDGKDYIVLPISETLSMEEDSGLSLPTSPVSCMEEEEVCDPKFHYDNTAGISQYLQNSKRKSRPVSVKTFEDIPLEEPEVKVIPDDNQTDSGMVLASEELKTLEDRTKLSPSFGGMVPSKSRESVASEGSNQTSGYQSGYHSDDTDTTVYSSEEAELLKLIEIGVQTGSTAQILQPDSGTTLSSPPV
row,Compound,"IC50/EC50, hKDR LANCE (assay number 32)"
1,COC(=O)Nc1nc2ccc(C(=O)c3cccs3)cc2[nH]1 [NCGC00015647-18],6.61 µM
2,COC(=O)Nc1nc2ccc(C(=O)c3ccccc3)cc2[nH]1 [NCGC00016806-13],1.43 µM
3,CCN(CC)CCNc1ccc(CO)c2sc3ccccc3c(=O)c12 [NCGC00016622-08],> 20 µM

# System: alkaline phosphatase (ALP) activity in C2C12 cells
# Experiment: not given
# Format: cell-based
# Conditions: concentration response
row,Compound,"IC50/EC50, WntCondMedia_Alk Phos C2C12 (assay number 6)"
1,COC(=O)Nc1nc2ccc(C(=O)c3cccs3)cc2[nH]1 [NCGC00015647-18],0.0434 µM
2,COC(=O)Nc1nc2ccc(C(=O)c3ccccc3)cc2[nH]1 [NCGC00016806-13],0.2454 µM
3,CCN(CC)CCNc1ccc(CO)c2sc3ccccc3c(=O)c12 [NCGC00016622-08],2.6738 µM

# System: ECFC/ADSC co-culture cell nuclei number
# Experiment: not given
# Conditions: not given
row,Compound,"IC50/EC50, VEGF_ADSC\ECFC Angio Hoechst NucArea (assay number 3)"
1,COC(=O)Nc1nc2ccc(C(=O)c3cccs3)cc2[nH]1 [NCGC00015647-18],> 10 µM
2,COC(=O)Nc1nc2ccc(C(=O)c3ccccc3)cc2[nH]1 [NCGC00016806-13],> 10 µM
3,CCN(CC)CCNc1ccc(CO)c2sc3ccccc3c(=O)c12 [NCGC00016622-08],> 10 µM

# System: nuclear β-catenin in C2C12 cells
# Experiment: cells
# Format: cell-based
# Conditions: concentration response
row,Compound,"IC50/EC50, WntCondMedia_bCatenin C2C12 (assay number 5)"
1,COC(=O)Nc1nc2ccc(C(=O)c3cccs3)cc2[nH]1 [NCGC00015647-18],0.2351 µM
2,COC(=O)Nc1nc2ccc(C(=O)c3ccccc3)cc2[nH]1 [NCGC00016806-13],1.7387 µM
3,CCN(CC)CCNc1ccc(CO)c2sc3ccccc3c(=O)c12 [NCGC00016622-08],> 20 µM

# System: HeLa cells
# Experiment: cells
# Format: cell-based
# Conditions: 2N
row,Compound,"IC50/EC50, Hela CellCycMod PI 2N (assay number 14)"
1,COC(=O)Nc1nc2ccc(C(=O)c3cccs3)cc2[nH]1 [NCGC00015647-18],0.0174 µM
2,COC(=O)Nc1nc2ccc(C(=O)c3ccccc3)cc2[nH]1 [NCGC00016806-13],0.0761 µM
3,CCN(CC)CCNc1ccc(CO)c2sc3ccccc3c(=O)c12 [NCGC00016622-08],5.6786 µM

# Same assay, conditions: 4N
row,Compound,"IC50/EC50, Hela CellCycMod PI 4N (assay number 16)"
1,COC(=O)Nc1nc2ccc(C(=O)c3cccs3)cc2[nH]1 [NCGC00015647-18],0.01755 µM
2,COC(=O)Nc1nc2ccc(C(=O)c3ccccc3)cc2[nH]1 [NCGC00016806-13],0.08 µM
3,CCN(CC)CCNc1ccc(CO)c2sc3ccccc3c(=O)c12 [NCGC00016622-08],> 10 µM

# Same assay, conditions: Cell Number
row,Compound,"IC50/EC50, Hela CellCycMod PI Cell Number (assay number 18)"
1,COC(=O)Nc1nc2ccc(C(=O)c3ccccc3)cc2[nH]1 [NCGC00016806-13],0.0542 µM
2,CCN(CC)CCNc1ccc(CO)c2sc3ccccc3c(=O)c12 [NCGC00016622-08],5.9199 µM

# Same assay, conditions: MI
row,Compound,"IC50/EC50, Hela CellCycMod PI MI (assay number 17)"
1,COC(=O)Nc1nc2ccc(C(=O)c3cccs3)cc2[nH]1 [NCGC00015647-18],0.01339 µM
2,COC(=O)Nc1nc2ccc(C(=O)c3ccccc3)cc2[nH]1 [NCGC00016806-13],0.0648 µM
3,CCN(CC)CCNc1ccc(CO)c2sc3ccccc3c(=O)c12 [NCGC00016622-08],> 10 µM

# Same assay, conditions: S Phase
row,Compound,"IC50/EC50, Hela CellCycMod PI S Phase (assay number 15)"
1,COC(=O)Nc1nc2ccc(C(=O)c3cccs3)cc2[nH]1 [NCGC00015647-18],> 10 µM
2,CCN(CC)CCNc1ccc(CO)c2sc3ccccc3c(=O)c12 [NCGC00016622-08],> 10 µM

# Target: T2, hJAK2 (Homo sapiens, UniProt O60674)
# T2 construct: purchased Cerep (LANCE kinase assay platform, contract assay)
# Experiment: Cerep LANCE kinase assay hJAK2 (S1 assay 33)
# Format: biochemical
# Conditions: not given
# T2 sequence (O60674 whole entry): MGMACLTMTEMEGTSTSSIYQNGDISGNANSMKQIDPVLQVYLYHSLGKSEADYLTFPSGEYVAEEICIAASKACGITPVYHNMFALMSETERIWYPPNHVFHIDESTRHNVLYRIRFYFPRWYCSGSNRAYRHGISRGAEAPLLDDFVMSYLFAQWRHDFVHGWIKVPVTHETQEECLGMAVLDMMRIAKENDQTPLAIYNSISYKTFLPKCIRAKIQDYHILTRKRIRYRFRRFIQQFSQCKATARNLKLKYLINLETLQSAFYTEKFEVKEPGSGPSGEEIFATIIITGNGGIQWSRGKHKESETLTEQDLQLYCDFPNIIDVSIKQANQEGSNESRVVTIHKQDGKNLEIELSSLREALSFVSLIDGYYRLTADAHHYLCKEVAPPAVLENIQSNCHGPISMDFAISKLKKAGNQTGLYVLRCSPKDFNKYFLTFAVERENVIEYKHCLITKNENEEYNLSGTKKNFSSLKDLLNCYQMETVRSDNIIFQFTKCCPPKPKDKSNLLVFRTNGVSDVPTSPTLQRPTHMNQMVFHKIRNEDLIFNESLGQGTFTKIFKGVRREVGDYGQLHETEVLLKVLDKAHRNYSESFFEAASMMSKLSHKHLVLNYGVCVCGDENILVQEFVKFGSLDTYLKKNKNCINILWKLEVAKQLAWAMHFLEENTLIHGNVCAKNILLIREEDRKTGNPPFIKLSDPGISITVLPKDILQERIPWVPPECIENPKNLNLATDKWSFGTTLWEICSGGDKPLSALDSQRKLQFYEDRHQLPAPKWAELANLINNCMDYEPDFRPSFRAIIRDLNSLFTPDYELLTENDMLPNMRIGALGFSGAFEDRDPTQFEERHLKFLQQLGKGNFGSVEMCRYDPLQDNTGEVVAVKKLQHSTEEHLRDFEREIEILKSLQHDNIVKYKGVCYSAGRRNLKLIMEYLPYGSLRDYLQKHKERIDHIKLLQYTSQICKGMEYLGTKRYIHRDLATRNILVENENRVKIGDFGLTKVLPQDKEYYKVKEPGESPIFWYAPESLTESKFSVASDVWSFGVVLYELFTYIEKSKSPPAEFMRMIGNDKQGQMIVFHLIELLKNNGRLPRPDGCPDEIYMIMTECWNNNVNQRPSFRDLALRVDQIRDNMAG
row,Compound,"IC50/EC50, hJAK2 LANCE (assay number 33)"
1,COC(=O)Nc1nc2ccc(C(=O)c3cccs3)cc2[nH]1 [NCGC00015647-18],> 20 µM
2,COC(=O)Nc1nc2ccc(C(=O)c3ccccc3)cc2[nH]1 [NCGC00016806-13],> 20 µM
3,CCN(CC)CCNc1ccc(CO)c2sc3ccccc3c(=O)c12 [NCGC00016622-08],> 20 µM

# Target: T3, hGSK3b (Homo sapiens, UniProt P49841)
# T3 construct: purchased Cerep (LANCE kinase assay platform, contract assay)
# Experiment: Cerep LANCE kinase assay hGSK3b (S1 assay 34)
# Format: biochemical
# Conditions: not given
# T3 sequence (P49841 whole entry): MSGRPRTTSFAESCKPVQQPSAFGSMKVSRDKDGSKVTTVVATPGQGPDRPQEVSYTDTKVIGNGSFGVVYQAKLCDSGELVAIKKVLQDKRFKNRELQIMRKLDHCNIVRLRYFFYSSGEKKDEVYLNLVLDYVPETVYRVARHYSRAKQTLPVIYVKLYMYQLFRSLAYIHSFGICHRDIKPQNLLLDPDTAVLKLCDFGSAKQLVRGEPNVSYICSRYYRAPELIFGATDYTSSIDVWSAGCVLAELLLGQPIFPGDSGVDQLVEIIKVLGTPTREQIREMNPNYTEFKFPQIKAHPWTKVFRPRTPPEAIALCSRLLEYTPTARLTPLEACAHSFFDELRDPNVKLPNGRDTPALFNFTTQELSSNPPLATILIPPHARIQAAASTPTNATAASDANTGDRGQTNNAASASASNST
row,Compound,"IC50/EC50, hGSK3b LANCE (assay number 34)"
1,COC(=O)Nc1nc2ccc(C(=O)c3cccs3)cc2[nH]1 [NCGC00015647-18],19.89 µM
2,COC(=O)Nc1nc2ccc(C(=O)c3ccccc3)cc2[nH]1 [NCGC00016806-13],> 20 µM
3,CCN(CC)CCNc1ccc(CO)c2sc3ccccc3c(=O)c12 [NCGC00016622-08],> 20 µM

# Target: T4, hFLT3 (Homo sapiens, UniProt P36888)
# T4 construct: purchased Cerep (LANCE kinase assay platform, contract assay)
# Experiment: Cerep LANCE kinase assay hFLT3 (S1 assay 35)
# Format: biochemical
# Conditions: not given
# T4 sequence (P36888 27-993): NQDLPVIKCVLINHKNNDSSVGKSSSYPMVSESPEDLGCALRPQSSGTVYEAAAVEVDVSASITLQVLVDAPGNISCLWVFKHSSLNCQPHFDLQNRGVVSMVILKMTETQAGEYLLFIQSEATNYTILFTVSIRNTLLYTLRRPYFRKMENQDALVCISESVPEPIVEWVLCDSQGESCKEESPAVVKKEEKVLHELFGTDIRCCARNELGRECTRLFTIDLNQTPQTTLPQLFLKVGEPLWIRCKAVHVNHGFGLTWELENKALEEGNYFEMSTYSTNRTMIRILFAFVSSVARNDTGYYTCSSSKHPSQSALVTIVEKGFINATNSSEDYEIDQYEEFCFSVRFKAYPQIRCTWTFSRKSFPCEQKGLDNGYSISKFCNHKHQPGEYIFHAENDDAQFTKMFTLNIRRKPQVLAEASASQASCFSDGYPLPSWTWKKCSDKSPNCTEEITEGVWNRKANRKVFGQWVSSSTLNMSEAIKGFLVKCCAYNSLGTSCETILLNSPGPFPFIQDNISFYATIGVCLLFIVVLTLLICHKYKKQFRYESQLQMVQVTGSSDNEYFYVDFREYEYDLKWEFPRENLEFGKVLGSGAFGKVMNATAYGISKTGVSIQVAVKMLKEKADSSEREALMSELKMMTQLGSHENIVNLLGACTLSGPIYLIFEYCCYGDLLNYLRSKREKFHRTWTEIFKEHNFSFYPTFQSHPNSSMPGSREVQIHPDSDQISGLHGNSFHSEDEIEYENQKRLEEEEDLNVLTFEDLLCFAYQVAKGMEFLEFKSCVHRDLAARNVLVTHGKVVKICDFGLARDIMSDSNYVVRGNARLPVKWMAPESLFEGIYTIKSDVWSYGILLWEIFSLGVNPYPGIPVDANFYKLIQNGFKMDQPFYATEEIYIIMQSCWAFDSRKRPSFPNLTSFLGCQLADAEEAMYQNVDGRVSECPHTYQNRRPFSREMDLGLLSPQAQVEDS
row,Compound,"IC50/EC50, hFLT3 LANCE (assay number 35)"
1,COC(=O)Nc1nc2ccc(C(=O)c3cccs3)cc2[nH]1 [NCGC00015647-18],> 20 µM
2,COC(=O)Nc1nc2ccc(C(=O)c3ccccc3)cc2[nH]1 [NCGC00016806-13],> 20 µM
3,CCN(CC)CCNc1ccc(CO)c2sc3ccccc3c(=O)c12 [NCGC00016622-08],> 20 µM

# Target: T5, hp70S6K1 (RPS6KB1) (Homo sapiens, UniProt P23443)
# T5 construct: purchased Cerep (LANCE kinase assay platform, contract assay)
# Experiment: Cerep LANCE kinase assay hp70S6K1 (S1 assay 31)
# Format: biochemical
# Conditions: not given
# T5 sequence (P23443 whole entry): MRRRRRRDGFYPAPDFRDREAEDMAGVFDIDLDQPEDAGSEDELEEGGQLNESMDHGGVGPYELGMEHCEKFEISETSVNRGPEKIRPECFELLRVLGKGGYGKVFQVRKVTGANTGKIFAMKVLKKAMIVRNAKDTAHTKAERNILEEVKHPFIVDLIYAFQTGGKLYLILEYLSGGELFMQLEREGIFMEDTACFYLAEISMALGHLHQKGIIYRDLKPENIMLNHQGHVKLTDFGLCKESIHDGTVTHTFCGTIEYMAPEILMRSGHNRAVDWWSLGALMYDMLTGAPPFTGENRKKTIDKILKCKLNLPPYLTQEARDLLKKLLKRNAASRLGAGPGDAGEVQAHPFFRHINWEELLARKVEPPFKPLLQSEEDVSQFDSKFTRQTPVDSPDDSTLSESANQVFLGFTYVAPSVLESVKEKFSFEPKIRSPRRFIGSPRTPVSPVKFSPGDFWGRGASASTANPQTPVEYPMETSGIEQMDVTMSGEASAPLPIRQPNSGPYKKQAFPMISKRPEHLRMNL
row,Compound,"IC50/EC50, hp70S6K1 LANCE (assay number 31)"
1,COC(=O)Nc1nc2ccc(C(=O)c3cccs3)cc2[nH]1 [NCGC00015647-18],> 20 µM
2,COC(=O)Nc1nc2ccc(C(=O)c3ccccc3)cc2[nH]1 [NCGC00016806-13],> 20 µM
3,CCN(CC)CCNc1ccc(CO)c2sc3ccccc3c(=O)c12 [NCGC00016622-08],17.07 µM

# System: endothelial tube formation in co-cultures of ECFCs and ADSCs treated with VEGF
# Experiment: cells
# Format: cell-based, human
# Conditions: not given
row,Compound,"IC50/EC50, VEGF_ADSC\ECFC Angio CD31 TubeArea (assay number 2)"
1,COC(=O)Nc1nc2ccc(C(=O)c3cccs3)cc2[nH]1 [NCGC00015647-18],0.1018 µM
2,COC(=O)Nc1nc2ccc(C(=O)c3ccccc3)cc2[nH]1 [NCGC00016806-13],0.3699 µM
3,CCN(CC)CCNc1ccc(CO)c2sc3ccccc3c(=O)c12 [NCGC00016622-08],8.3546 µM
